Measurements published in patent EP0250134B1, “Method for combating swine dysentery” (IMCERA Group Inc., priority 1986, dated 1987).

System: Treponema hyodysenteriae induced swine dysentery
Assay: Treponema hyodysenteriae induced swine dysentery, lysocellin in feed, 51-day trial, challenge on study day 22
Type: in vivo
Details: for Number of Pigs per Pen Expressing Clinical Signs of Dysentery During the Postchallenge Period: Anorexia / Number of Pigs per Pen Expressing Clinical Signs of Dysentery During the Postchallenge Period: Any clinical signs / Number of Pigs per Pen Expressing Clinical Signs of Dysentery During the Postchallenge Period: Bloody feces / Number of Pigs per Pen Expressing Clinical Signs of Dysentery During the Postchallenge Period: Dehydrated / Number of Pigs per Pen Expressing Clinical Signs of Dysentery During the Postchallenge Period: Depressed / Number of Pigs per Pen Expressing Clinical Signs of Dysentery During the Postchallenge Period: Gauntness / Number of Pigs per Pen Expressing Clinical Signs of Dysentery During the Postchallenge Period: Lethargic / Number of Pigs per Pen Expressing Clinical Signs of Dysentery During the Postchallenge Period: Reddened skin / Number of Pigs per Pen Expressing Clinical Signs of Dysentery During the Postchallenge Period: Rough hair coat / Number of Pigs per Pen Expressing Clinical Signs of Dysentery During the Postchallenge Period: Weak: 5 pigs/pen
Description: One hundred twenty (120) cross-bred barrows and gilts were used in a randomized complete blocks design to evaluate the effect of lysocellin on Treponema hyodysenteriae induced swine dysentery. The swine were divided into 4 groups: (1) non-infected, non-medicated controls, (2) infected non-medicated controls, (3) infected, medicated at 98.43 grams lysocellin/t (100 g/T), and (4) infected, medicated at 196.85 grams lysocellin/t (200 g/T). All were observed through a 51-day trial period. Swine in groups (2)-(4) were challenged with Treponema hyodysenteriae on study day 22 and the post-challenge period data were analyzed for significant differences. A description of the experimental design is summarized as follows:
Comparisons were made on treatment 1 vs. treatments 3 and 4, treatment 2 vs. treatment 3 and 4, and treatment 3 vs. treatment 4. The following observations were made based upon data analyzed: postchallenge performance of swine with respect to daily gain and daily feed gain, number of pigs per pen expressing clinical signs of dysentery during the postchallenge period, number of pig days per pen with clinical signs of dysentery during the postchallenge period, and number of pig days per pen with specified fecal score.
Referring to table 3 and table 4, clinical signs of dysentery observed during the postchallenge period are presented as treatment means of: number of pigs per pen expressing the sign and number of pig days the sign was observed within a pen. The value "pig days" was based on 28 days/pig surviving to the end of the trial or number of days a pig survived during the postchallenge period (for example, 5 pigs/pen on trial for 28 days equals 140 pig days). Removal of pigs from a pen during the trial was taken into account in these calculations.

[1] = 98.43 g/t (100 g/T) lysocellin, mean (lower, higher 95% confidence limits)
[2] = 98.43 g/t (100 g/T) lysocellin, mean (lower, higher 95% confidence limits), 5 pigs/pen for 28 days = 140 pig days
[3] = 196.85 g/t (200 g/T) lysocellin, mean (lower, higher 95% confidence limits)
[4] = 196.85 g/t (200 g/T) lysocellin, mean (lower, higher 95% confidence limits), 5 pigs/pen for 28 days = 140 pig days

With lysocellin the “Number of Pigs per Pen Expressing Clinical Signs of Dysentery During the Postchallenge Period: Anorexia” value [1] was 0.00 (-0.27,0.37), the “Number of Pigs per Pen Expressing Clinical Signs of Dysentery During the Postchallenge Period: Any clinical signs” value [1] was 4.49 (3.42,5.69) and the “Number of Pigs per Pen Expressing Clinical Signs of Dysentery During the Postchallenge Period: Bloody feces” value [1] was 2.73 (1.93,3.66). The “Number of Pigs per Pen Expressing Clinical Signs of Dysentery During the Postchallenge Period: Dehydrated” value [1] was 1.08 (0.44,1.89), the “Number of Pigs per Pen Expressing Clinical Signs of Dysentery During the Postchallenge Period: Depressed” value [1] was 1.78 (1.18,2.47) and the “Number of Pigs per Pen Expressing Clinical Signs of Dysentery During the Postchallenge Period: Gauntness” value [1] was 3.98 (3.13,4.92). For the same substance, the “Number of Pigs per Pen Expressing Clinical Signs of Dysentery During the Postchallenge Period: Lethargic” value [1] was 2.12 (1.50,2.82), the “Number of Pigs per Pen Expressing Clinical Signs of Dysentery During the Postchallenge Period: Reddened skin” value [1] was 0.87 (0.24,1.69) and the “Number of Pigs per Pen Expressing Clinical Signs of Dysentery During the Postchallenge Period: Rough hair coat” value [1] was 1.93 (1.20,2.79). For the same substance, the “Number of Pigs per Pen Expressing Clinical Signs of Dysentery During the Postchallenge Period: Weak” value [1] was 1.93 (1.31,2.64), the “Number of Pig Days per Pen with Clinical Signs of Dysentery During the Postchallenge Period: Anorexia” value [2] was 0.00 (-0.30,0.43) and the “Number of Pig Days per Pen with Clinical Signs of Dysentery During the Postchallenge Period: Bloody feces” value [2] was 9.98 (5.72,15.34). The “Number of Pig Days per Pen with Clinical Signs of Dysentery During the Postchallenge Period: Dehydrated” value [2] was 2.69 (1.40,4.33), the “Number of Pig Days per Pen with Clinical Signs of Dysentery During the Postchallenge Period: Depressed” value [2] was 3.14 (1.78,4.81) and the “Number of Pig Days per Pen with Clinical Signs of Dysentery During the Postchallenge Period: Gauntness” value [2] was 30.35 (20.97,41.42). The “Number of Pig Days per Pen with Clinical Signs of Dysentery During the Postchallenge Period: Lethargic” value [2] was 9.08 (4.93,14.42), the “Number of Pig Days per Pen with Clinical Signs of Dysentery During the Postchallenge Period: Reddened skin” value [2] was 2.21 (0.51,4.72) and the “Number of Pig Days per Pen with Clinical Signs of Dysentery During the Postchallenge Period: Rough hair coat” value [2] was 18.07 (7.46,33.11). The “Number of Pig Days per Pen with Clinical Signs of Dysentery During the Postchallenge Period: Weak” value [2] was 0.87 (0.08,1.99), the “fecal condition (number of pen pig days with a specified fecal condition)” value (196.85 g lysocellin/t (200 g/T) rather than 98.43 g/T, postchallenge period (Table 5, not given)) was “increased (PM.05) the number of days with normal feces and decreased (P<.05) the incidence of soft, watery or bloody feces” and the “Number of Pigs per Pen Expressing Clinical Signs of Dysentery During the Postchallenge Period: Anorexia” value [3] was 0.00 (-0.27,0.37). For the same substance, the “Number of Pigs per Pen Expressing Clinical Signs of Dysentery During the Postchallenge Period: Any clinical signs” value [3] was 2.72 (1.87,3.70), the “Number of Pigs per Pen Expressing Clinical Signs of Dysentery During the Postchallenge Period: Bloody feces” value [3] was 1.20 (0.63,1.89) and the “Number of Pigs per Pen Expressing Clinical Signs of Dysentery During the Postchallenge Period: Dehydrated” value [3] was 0.23 (-0.18,0.80). For the same substance, the “Number of Pigs per Pen Expressing Clinical Signs of Dysentery During the Postchallenge Period: Depressed” value [3] was 0.27 (-0.06,0.70), the “Number of Pigs per Pen Expressing Clinical Signs of Dysentery During the Postchallenge Period: Gauntness” value [3] was 1.96 (1.35,2.67) and the “Number of Pigs per Pen Expressing Clinical Signs of Dysentery During the Postchallenge Period: Lethargic” value [3] was 0.43 (0.08,0.87). The “Number of Pigs per Pen Expressing Clinical Signs of Dysentery During the Postchallenge Period: Reddened skin” value [3] was 0.55 (0.01,1.28), the “Number of Pigs per Pen Expressing Clinical Signs of Dysentery During the Postchallenge Period: Rough hair coat” value [3] was 1.31 (0.68,2.06) and the “Number of Pigs per Pen Expressing Clinical Signs of Dysentery During the Postchallenge Period: Weak” value [3] was 1.31 (0.78,1.93). The “Number of Pig Days per Pen with Clinical Signs of Dysentery During the Postchallenge Period: Anorexia” value [4] was 0.00 (-0.30,0.43), the “Number of Pig Days per Pen with Clinical Signs of Dysentery During the Postchallenge Period: Bloody feces” value [4] was 3.02 (0.78,6.35) and the “Number of Pig Days per Pen with Clinical Signs of Dysentery During the Postchallenge Period: Dehydrated” value [4] was 0.23 (-0.30,1.09). For the same substance, the “Number of Pig Days per Pen with Clinical Signs of Dysentery During the Postchallenge Period: Depressed” value [4] was 0.38 (-0.21,1.29).
